From PubChem BioAssay AID248 (DTP/NCI, 2004)
Several values for one entry are separate records, joined by “and”; a condition that tells them apart may be missing. Equal values may be shown once. Inconclusive results and toxic doses are left out. No stated cut-off is given here; in the data, active means T/C of 150% or more; inactive means T/C below 125%.

Test system: L1210 leukemia ip in BDF1 mice, survival T/C
Test: NCI In Vivo Anticancer Drug Screen. Data for tumor model L1210 Leukemia (intraperitoneal) in B6D2F1 (BDF1) mice
Conditions: endpoint: mean survival time, higher = longer survival
In short: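 Each compound was tested against a transplantable tumor grown in mice. The endpoint was survival, with treated animals benchmarked against vehicle controls as a simple ratio.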

[1] = dose: 25.0 mg/kg/injection, schedule: Q01DX009 (ip), vehicle: saline with Tween-80
[2] = dose: 50.0 mg/kg/injection, schedule: Q04DX003 (ip), vehicle: saline with Tween-80
[3] = dose: 100.0 mg/kg/injection, schedule: Q04DX002 (ip), vehicle: saline with Tween-80
[4] = dose: 100.0 mg/kg/injection, schedule: Q01DX001 (ip), vehicle: saline
[5] = dose: 200.0 mg/kg/injection, schedule: Q01DX001 (ip), vehicle: saline
[6] = dose: 400.0 mg/kg/injection, schedule: Q01DX001 (ip), vehicle: saline
[7] = dose: 100.0 mg/kg/injection, schedule: Q01DX009 (ip), vehicle: saline with Tween-80
[8] = dose: 200.0 mg/kg/injection, schedule: Q01DX009 (ip), vehicle: saline with Tween-80
[9] = dose: 400.0 mg/kg/injection, schedule: Q01DX009 (ip), vehicle: saline with Tween-80
[10] = dose: 12.5 mg/kg/injection, schedule: Q04DX003 (ip), vehicle: Klucel (hydroxypropylcellulose) (HPC)
[11] = dose: 100.0 mg/kg/injection, schedule: Q04DX003 (ip), vehicle: Klucel (hydroxypropylcellulose) (HPC)
[12] = dose: 100.0 mg/kg/injection, schedule: Q04DX003 (ip), vehicle: saline with Tween-80
[13] = dose: 200.0 mg/kg/injection, schedule: Q04DX003 (ip), vehicle: saline with Tween-80
[14] = dose: 400.0 mg/kg/injection, schedule: Q04DX003 (ip), vehicle: saline with Tween-80

Measured: T/C

N#C/C(=C\c1ccc(-c2ccccc2)cc1)c1ccccc1
inactive: dose: 12.5 mg/kg/injection, schedule: Q01DX009 (ip), vehicle: saline with Tween-80 87 % of control | dose: 12.5 mg/kg/injection, schedule: Q04DX003 (ip), vehicle: saline with Tween-80 109 % of control | [1] 87 % of control | dose: 25.0 mg/kg/injection, schedule: Q04DX003 (ip), vehicle: saline with Tween-80 91 % of control | dose: 50.0 mg/kg/injection, schedule: Q01DX009 (ip), vehicle: saline with Tween-80 86 % of control | [2] 88 % of control

COC(=O)c1cc(NC(=O)Nc2cc([N+](=O)[O-])ccc2C)cc(C(=O)OC)c1
inactive: dose: 100.0 mg/kg/injection, schedule: Q04DX002 (ip), vehicle: saline 120 % of control | dose: 200.0 mg/kg/injection, schedule: Q04DX002 (ip), vehicle: saline 103 % of control | dose: 400.0 mg/kg/injection, schedule: Q04DX002 (ip), vehicle: saline 116 % of control

Oc1ccc(O)c(-c2ccccc2)c1
inactive: dose: 100.0 mg/kg/injection, schedule: Q01DX001 (ip), vehicle: carboxymethylcellulose (CMC) 93 % of control | dose: 200.0 mg/kg/injection, schedule: Q01DX001 (ip), vehicle: carboxymethylcellulose (CMC) 101 % of control

Cc1cc([N+](=O)[O-])c2ccccc2[n+]1[O-]
inactive: [1] 96 % of control

Nc1ccc(C(=O)CCCN2CCCCC2)cc1
inactive: dose: 12.5 mg/kg/injection, schedule: Q01DX009 (ip), vehicle: saline 103 % of control | dose: 25.0 mg/kg/injection, schedule: Q01DX009 (ip), vehicle: saline 97 % of control | dose: 50.0 mg/kg/injection, schedule: Q01DX009 (ip), vehicle: saline 100 % of control

O=C(O)c1cc(S(=O)(=O)F)ccc1O
inactive: [3] 101 % of control | dose: 200.0 mg/kg/injection, schedule: Q04DX002 (ip), vehicle: saline with Tween-80 101 % of control | dose: 400.0 mg/kg/injection, schedule: Q04DX002 (ip), vehicle: saline with Tween-80 104 % of control

Nc1nc(N)c2nc(CNc3ccc(C(=O)NCC(=O)O)cc3)cnc2n1
inactive: dose: 5.0 mg/kg/injection, schedule: Q01DX009 (ip), vehicle: Klucel (hydroxypropylcellulose) (HPC) 93 % of control | dose: 10.0 mg/kg/injection, schedule: Q01DX009 (ip), vehicle: Klucel (hydroxypropylcellulose) (HPC) 101 % of control | dose: 20.0 mg/kg/injection, schedule: Q01DX009 (ip), vehicle: Klucel (hydroxypropylcellulose) (HPC) 109 % of control | dose: 40.0 mg/kg/injection, schedule: Q01DX009 (ip), vehicle: Klucel (hydroxypropylcellulose) (HPC) 105 % of control

Clc1ccc(C2OCCO2)c(Cl)c1
inactive: [4] 97 % of control | [5] 92 % of control | [6] 87 % of control

O=[N+]([O-])c1cccc(C2=NNC(c3cccc([N+](=O)[O-])c3)=NN2)c1
inactive: dose: 175.0 mg/kg/injection, schedule: Q01DX001 (ip), vehicle: saline 87 % of control | dose: 265.0 mg/kg/injection, schedule: Q01DX001 (ip), vehicle: saline 92 % of control | [6] 89 % of control | dose: 600.0 mg/kg/injection, schedule: Q01DX001 (ip), vehicle: saline 89 % of control

O=C(NC(=S)Nc1ccc(Cl)cc1)c1ccccc1
inactive: dose: 25.0 mg/kg/injection, schedule: Q01DX009 (ip), vehicle: Klucel (hydroxypropylcellulose) (HPC) 95 % of control | dose: 50.0 mg/kg/injection, schedule: Q01DX009 (ip), vehicle: Klucel (hydroxypropylcellulose) (HPC) 93 % of control | dose: 100.0 mg/kg/injection, schedule: Q01DX009 (ip), vehicle: Klucel (hydroxypropylcellulose) (HPC) 93 % of control and 89 % of control

c1ccc2c(c1)-c1ccccc1[Si]21c2ccccc2-c2ccccc21
inactive: [7] 97 % of control | [8] 92 % of control | [9] 91 % of control

CNC(=O)Oc1ccccc1CCl
inactive: dose: 50.0 mg/kg/injection, schedule: Q01DX001 (ip), vehicle: Klucel (hydroxypropylcellulose) (HPC) 97 % of control | dose: 100.0 mg/kg/injection, schedule: Q01DX001 (ip), vehicle: Klucel (hydroxypropylcellulose) (HPC) 97 % of control | dose: 200.0 mg/kg/injection, schedule: Q01DX001 (ip), vehicle: Klucel (hydroxypropylcellulose) (HPC) 92 % of control

CC1CC(C)(C)NC(C2CCC=CO2)N1 (stereo not given)
inactive: dose: 44.0 mg/kg/injection, schedule: Q01DX Z (ip), vehicle: saline 115 % of control | dose: 100.0 mg/kg/injection, schedule: Q01DX Z (ip), vehicle: saline 107 % of control

Cc1cc(C)c(C(=O)c2ccccc2C(=O)OC(=O)c2ccccc2C(=O)c2c(C)cc(C)cc2C)c(C)c1
inactive: [3] 88 % of control

O=c1cc(CO)oc(C(Nc2cccc(Cl)c2)c2ccccc2)c1O (stereo not given)
inactive: [4] 91 % of control | [5] 95 % of control | [6] 89 % of control

CC(=O)NN=C1CCC(=NNC(C)=O)CC1
inactive: [10] 97 % of control | dose: 25.0 mg/kg/injection, schedule: Q04DX003 (ip), vehicle: Klucel (hydroxypropylcellulose) (HPC) 94 % of control | dose: 50.0 mg/kg/injection, schedule: Q04DX003 (ip), vehicle: Klucel (hydroxypropylcellulose) (HPC) 108 % of control | [11] 110 % of control

O=C(O)C(O)Cc1ccc(O)cc1 (stereo not given)
inactive: [4] 90 % of control | [5] 92 % of control | [6] 97 % of control

S=c1c2ccccc2nc2n1CCS2
inactive: [8] 92 % of control | [9] 87 % of control

Cc1ccc(CN=C(N)CSS(=O)(=O)O)cc1C
inactive: dose: 100.0 mg/kg/injection, schedule: Q04DX002 (ip), vehicle: Klucel (hydroxypropylcellulose) (HPC) 97 % of control | dose: 200.0 mg/kg/injection, schedule: Q04DX002 (ip), vehicle: Klucel (hydroxypropylcellulose) (HPC) 101 % of control

CCOc1ccc(/C=N\NC(=O)CCCC(=O)N/N=C/c2ccc(OCC)c(OCC)c2)cc1OCC
inactive: dose: 50.0 mg/kg/injection, schedule: Q01DX001 (ip), vehicle: saline 103 % of control | [4] 95 % of control | [5] 87 % of control

O=[N+]([O-])c1ccc(Oc2ccccc2)c(S(=O)(=O)O)c1
inactive: [12] 103 % of control | [13] 94 % of control | [14] 97 % of control

O=c1n(CCCl)c(=O)n(CCCl)c(=O)n1CCCl
inactive: [2] 103 % of control | [12] 88 % of control | [13] 96 % of control and 87 % of control | [14] 98 % of control

COc1ccc(OC(=O)Nc2ccc(SC)cc2)cc1
inactive: [7] 104 % of control | [11] 96 % of control | [8] 90 % of control | dose: 200.0 mg/kg/injection, schedule: Q04DX003 (ip), vehicle: Klucel (hydroxypropylcellulose) (HPC) 96 % of control | [9] 98 % of control | dose: 400.0 mg/kg/injection, schedule: Q04DX003 (ip), vehicle: Klucel (hydroxypropylcellulose) (HPC) 102 % of control

CC(CCc1ccc2sc3ccccc3c2c1)C(N)=O (stereo not given)
inactive: [4] 94 % of control | [5] 92 % of control | [6] 94 % of control

CCc1c2cc3c(cc2cc2c4cc5c(cc4cc[n+]12)OCO5)OCO3 (tested in a mixture with another compound)
inactive: dose: 3.13 mg/kg/injection, schedule: Q01DX009 (ip), vehicle: Klucel (hydroxypropylcellulose) (HPC) 122 % of control | dose: 3.13 mg/kg/injection, schedule: Q04DX003 (ip), vehicle: Klucel (hydroxypropylcellulose) (HPC) 113 % of control | dose: 6.25 mg/kg/injection, schedule: Q01DX009 (ip), vehicle: Klucel (hydroxypropylcellulose) (HPC) 110 % of control | dose: 6.25 mg/kg/injection, schedule: Q04DX003 (ip), vehicle: Klucel (hydroxypropylcellulose) (HPC) 110 % of control | [10] 113 % of control and 115 % of control

CN(C)c1ccc(/C=C/C=N/Nc2nnc(N/N=C/C=C/c3ccc(N(C)C)cc3)c3ccccc23)cc1
inactive: dose: 50.0 mg/kg/injection, schedule: Q01DX001 (ip), vehicle: other 109 % of control | dose: 100.0 mg/kg/injection, schedule: Q01DX001 (ip), vehicle: other 100 % of control | dose: 200.0 mg/kg/injection, schedule: Q01DX001 (ip), vehicle: other 103 % of control | dose: 400.0 mg/kg/injection, schedule: Q01DX001 (ip), vehicle: other 100 % of control

CCOC(=O)P(C(=O)OCC)C(=O)OCC
inactive: dose: 75.0 mg/kg/injection, schedule: Q01DX001 (ip), vehicle: saline 97 % of control

O=CC12C=CC(CC1)C1C(=O)OC(=O)C12 (stereo not given)
inactive: dose: 75.0 mg/kg/injection, schedule: Q01DX009 (ip), vehicle: saline 112 % of control | [4] 91 % of control | dose: 150.0 mg/kg/injection, schedule: Q01DX009 (ip), vehicle: saline 97 % of control | [5] 98 % of control | dose: 300.0 mg/kg/injection, schedule: Q01DX009 (ip), vehicle: saline 91 % of control | [6] 96 % of control
